# Source: patent publication US10202411B2, “3′-substituted methyl or alkynyl nucleosides nucleotides for the treatment of HCV” (priority 2014, dated 2019)
# Where two headings read alike, the source gives them in different places.
# How the values were obtained:
# HCV genotype 1b replicon = experiment: HCV replicon assay (Zluc luciferase reporter); assay type: cell-based
# Experimental: Huh-7-derived cell line (Zluc) that harbors an HCV genotype 1b replicon and a luciferase reporter gene was grown in Dulbecco's Modified Eagle Medium (DMEM) supplemented with 10% fetal bovine serum, 2 mM GlutaMAX, 1% MEM nonessential amino acids, 100 IU/mL penicillin, 100 μg/mL streptomycin, and 0.5 mg/mL Geneticin® (G418). For dose response testing the cells were seeded in 96-well plates at 7.5×10^3 cells per well in a volume of 50 μL, and incubated at 37° C./5% CO2. Drug solutions were made up freshly in Huh-7 media as 2× stocks. Ten additional 5-fold dilutions were prepared from these stocks in DMEM without G418. At least three hours after Zluc cells were seeded, drug treatment was initiated by adding 50 μL of drug dilutions to the plates in duplicate. Final concentrations of drug ranged from 100 μM to 0.0000512 μM. Cells were then incubated at 37° C./5% CO2. Alternatively, compounds were tested at two concentrations (1 μM and 10 μM). […] After 72 hours of incubation, the inhibition of HCV replication was measured by quantification of photons emitted after mono-oxygenation of 5′-fluoroluciferin to oxyfluoroluciferin by firefly luciferase. For this, media was removed from the plates via gentle tapping. Fifty microliters of ONE-glo luciferase assay reagent was added to each well. The plates were shaken gently for 3 min at room temperature and luminescence was measured on a Victor^3 V 1420 multilabel counter (Perkin Elmer) with a 1 second read time using a 700 nm cut-off filter. The EC50 values were calculated from dose response curves from the resulting best-fit equations determined by Microsoft Excel and XLfit 4.1 software. When screening at two fixed concentrations, the results were expressed as % inhibition at 1 μM and 10 μM.
# in vitro = conditions: human
# Zluc cells = experiment: Cytotoxicity evaluation, CellTiter-Blue Cell Viability Assay; conditions: read-out: HCV Replicon CC50; Zluc cells, CellTiter-Blue cell viability
# [1] = Hepatitis C virus; Huh-7-derived Zluc cells, genotype 1b replicon, luciferase, 72 hours; read-out: HCV Replicon EC50
# [2] = Huh-7-derived Zluc cells, genotype 1b replicon, luciferase, 72 hours; read-out: HCV Replicon EC50
SMILES,EC50 (HCV genotype 1b replicon; [1]) [µM],CC50 (in vitro) [µM],EC50 (HCV genotype 1b replicon; [2]) [µM],CC50 (Zluc cells) [µM],"EC50 (HCV genotype 1b replicon; read-out: HCV Replicon EC50; Huh-7-derived Zluc cells, genotype 1b replicon, luciferase, 72 hours) [µM]"
"CC(C)OP1(=O)OC[C@H]2[C@@H](O)[C@H](n3ccc(=O)[nH]c3=O)O[C@@H]2CO1 (single isomer, unassigned) [Compound 108 (Diastereomer 1)]",> 10,> 50,,,
"CC(C)OC(=O)[C@H](C)NP(=O)(OCCSC(=O)C(C)(C)C)OC[C@H]1O[C@@H](n2ccc(N)nc2=O)[C@H](O)[C@@H]1CO (single isomer, unassigned) [Compound 106b (Mixture of diastereomers)]",,,> 10,> 50,
"CC(C)OC(=O)CCCOP1(=O)OC[C@H]2[C@@H](O)[C@H](n3ccc(=O)[nH]c3=O)O[C@@H]2CO1 (single isomer, unassigned) [Compound 112 (Diastereomer 1)]",> 10,> 50,,,
CC(C)OC(=O)CCCOP(=O)(O)OC[C@H]1O[C@@H](n2ccc(=O)[nH]c2=O)[C@H](O)[C@@H]1CO [Compound 115],> 10,> 50,,,
"CC(C)OC(=O)[C@@H](C)NP(=S)(OC[C@H]1O[C@@H](n2ccc(=O)[nH]c2=O)[C@H](O)[C@@H]1CO)Oc1ccccc1 (single isomer, unassigned) [Compound 122a Diastereomer 2]",,,,> 50,> 10
"C[C@@H](NP1(=O)OC[C@H]2[C@@H](O)[C@H](n3ccc(=O)[nH]c3=O)O[C@@H]2CO1)C(=O)OCc1ccccc1 (single isomer, unassigned) [Compound 120a (Diastereomer 1)]",> 10,> 50,,,
"CC(C)OC(=O)[C@@H](C)NP1(=O)OC[C@H]2[C@@H](O)[C@H](n3ccc(=O)[nH]c3=O)O[C@@H]2CO1 (single isomer, unassigned) [Compound 110a (Diastereomer 1)]",> 10,> 50,,,
"C[C@@H](NP(=O)(OC[C@H]1O[C@@H](n2cnc3c(=O)[nH]c(N)nc32)[C@H](O)[C@@H]1CF)Oc1ccccc1)C(=O)OC1CCCC1 (single isomer, unassigned) [Compound 124a Diastereomer 2]",,,> 10,> 50,
"C[C@@H](NP(=O)(OC[C@H]1O[C@@H](n2ccc(=O)[nH]c2=O)[C@H](O)[C@@H]1CO)Oc1ccccc1)C(=O)OCc1ccccc1 (single isomer, unassigned) [Compound 123a Diastereomer 1]",> 10,> 50,,,
Nc1ccn([C@@H]2O[C@H](CO)[C@@H](CF)[C@H]2O)c(=O)n1 [Compound 204],> 10,> 50,,,
"O=c1ccn([C@@H]2O[C@@H]3COP(=O)(OCc4ccccc4)OC[C@H]3[C@H]2O)c(=O)[nH]1 (single isomer, unassigned) [Compound 113 (Diastereomer 1)]",> 10,> 50,,,
"C[C@@H](NP(=O)(OC[C@H]1O[C@@H](n2cnc3c(=O)[nH]c(N)nc32)[C@H](O)[C@@H]1CF)Oc1ccccc1)C(=O)OC1CCCC1 (single isomer, unassigned) [Compound 124a Diastereomer 1]",> 10,> 50,,,
CCOc1nc(N)nc2c1ncn2[C@@H]1O[C@H](CO)[C@@H](CO)[C@H]1O [Compound 227],> 10,> 50,,,
Nc1nc2c(ncn2[C@@H]2O[C@H](CO)[C@@H](CO)[C@H]2O)c(=O)[nH]1 [Compound 208],,,> 10,> 50,
CC(C)OC(=O)CCCOP1(=O)OC[C@H]2[C@@H](O)[C@H](n3ccc(=O)[nH]c3=O)O[C@@H]2CO1 (mixture of isomers) [Compound 112 (Mixture of diastereomers)],> 10,> 50,,,
"CC(O)[C@H]1[C@@H](O)[C@H](n2ccc(=O)[nH]c2=O)O[C@@H]1CO (single isomer, unassigned) [Compound 211 (Single Isomer)]",> 10,> 50,,,
"C[C@@H](NP1(=O)OC[C@H]2[C@@H](O)[C@H](n3ccc(=O)[nH]c3=O)O[C@@H]2CO1)C(=O)OCc1ccccc1 (single isomer, unassigned) [Compound 120a (Diastereomer 2)]",,,> 10,> 50,
O=c1ccn([C@@H]2O[C@@H]3COP(=O)(O)OC[C@H]3[C@H]2O)c(=O)[nH]1 [Compound 118],> 10,> 50,,,
CC(=O)OC[C@H]1[C@@H](OC(C)=O)[C@H](n2ccc(=O)[nH]c2=O)O[C@@H]1CO [Compound 212],> 10,> 50,,,
CCOC(=O)OC(C)OP(=O)(N[C@H](C(=O)OC)C(C)C)OC[C@H]1O[C@@H](n2cnc3c(OCC)nc(N)nc32)[C@H](O)[C@@H]1CF (mixture of isomers) [Compound 128a Mixture of diastereomers],> 10,> 50,,,

SMILES,EC50 (HCV genotype 1b replicon; [1]) [µM],CC50 (in vitro) [µM],EC50 (HCV genotype 1b replicon; [2]) [µM],CC50 (Zluc cells) [µM],"EC50 (HCV genotype 1b replicon; read-out: HCV Replicon EC50; Huh-7-derived Zluc cells, genotype 1b replicon, luciferase, 72 hours) [µM]"
CC(=O)OC[C@H]1[C@@H](OC(C)=O)[C@H](n2ccc(N)nc2=O)O[C@@H]1CO [Compound 213],> 10,> 50,,,
O=c1ccn([C@@H]2O[C@H](CO)[C@@H](C(F)F)[C@H]2O)c(=O)[nH]1 [Compound 201],> 10,> 50,,,
Nc1ccn([C@@H]2O[C@H](CO)[C@@H](CO)[C@H]2O)c(=O)n1 [Compound 206],> 10,> 50,,,
Nc1ccn([C@@H]2O[C@H](CO)[C@@H](C(F)F)[C@H]2O)c(=O)n1 [Compound 203],> 10,> 50,,,
"C[C@@H](NP(=O)(OC[C@H]1O[C@@H](n2ccc(=O)[nH]c2=O)[C@H](O)[C@@H]1CO)Oc1ccccc1)C(=O)OCc1ccccc1 (single isomer, unassigned) [Compound 123a Diastereomer 2]",,,> 10,> 50,
O=c1ccn([C@@H]2O[C@@H]3COP(=O)(OCc4ccccc4)OC[C@H]3[C@H]2O)c(=O)[nH]1 (mixture of isomers) [Compound 113 (Mixture of diastereomers)],> 10,> 50,,,
Nc1ncnc2c1ncn2[C@@H]1O[C@H](CO)[C@@H](CO)[C@H]1O [Compound 207],> 10,> 50,,,
O=c1ccn([C@@H]2O[C@H](CO[PH](=O)OCc3ccccc3)[C@@H](CO)[C@H]2O)c(=O)[nH]1 (mixture of isomers) [Compound 114 (Mixture of diastereomers)],> 10,> 50,,,
"CC(C)OP1(=O)OC[C@H]2[C@@H](O)[C@H](n3ccc(=O)[nH]c3=O)O[C@@H]2CO1 (single isomer, unassigned) [Compound 108 (Diastereomer 2)]",,,> 10,> 50,
"CC(C)OC(=O)CCCOP1(=O)OC[C@H]2[C@@H](O)[C@H](n3ccc(=O)[nH]c3=O)O[C@@H]2CO1 (single isomer, unassigned) [Compound 112 (Diastereomer 2)]",,,> 10,,
CCOC(=O)[C@H](CC(C)C)NP(=O)(N[C@@H](CC(C)C)C(=O)OCC)OC[C@H]1O[C@@H](n2cnc3c(OCC)nc(N)nc32)[C@H](O)[C@@H]1CF [Compound 129a],> 10,> 50,,,
CC(C)(CO)C(=O)SCCO[PH](=O)OC[C@H]1O[C@@H](n2ccc(=O)[nH]c2=O)[C@H](O)[C@@H]1CO (mixture of isomers) [Compound 107 (Mixture of diastereomers)],> 10,> 50,,,
CC(C)(CO)C(=O)SCCOP1(=O)OC[C@H]2[C@@H](O)[C@H](n3ccc(=O)[nH]c3=O)O[C@@H]2CO1 (mixture of isomers) [Compound 109 (Mixture of diastereomers)],> 10,> 50,,,
Nc1nc2c(ncn2[C@@H]2O[C@H](CO)[C@@H](CF)[C@H]2O)c(=O)[nH]1 [Compound 226],> 10,> 50,,,
CC(C)(C)C(=O)SCCOP(=O)(OCCSC(=O)C(C)(C)C)OC[C@H]1O[C@@H](n2cnc3c(=O)[nH]c(N)nc32)[C@H](O)[C@@H]1CO [Compound 101],> 10,> 50,,,
Nc1ncnc2c1ncn2[C@@H]1O[C@H](CO)[C@@H](CF)[C@H]1O [Compound 225],> 10,> 50,,,
O=c1ccn([C@@H]2O[C@H](CO)[C@@H](CO)[C@H]2O)c(=O)[nH]1 [Compound 205],> 10,> 50,,,
"CC(C)(CO)C(=O)SCCOP1(=O)OC[C@H]2[C@@H](O)[C@H](n3ccc(=O)[nH]c3=O)O[C@@H]2CO1 (single isomer, unassigned) [Compound 109 (Diastereomer 2)]",,,> 10,,
"CC(C)(CO)C(=O)SCCOP1(=O)OC[C@H]2[C@@H](O)[C@H](n3ccc(=O)[nH]c3=O)O[C@@H]2CO1 (single isomer, unassigned) [Compound 109 (Diastereomer 1)]",> 10,> 50,,,
O=c1ccn([C@@H]2O[C@H](CO)[C@@H](CF)[C@H]2O)c(=O)[nH]1 [Compound 202],> 10,> 50,,,
